Test results from PMC6478789, “A chemical toolbox for the study of bromodomains and epigenetic signaling” (Nature Communications, 2019).

Key:
TAF1L(2) = target: TAF1L(2); set-up: method as in ref 13 (suppl.); conditions: ITC data; ref 13 (suppl.); cited from earlier work
p300 = conditions: ITC data; ref 9 (suppl.); cited from earlier work
MDA-MB436 cells = assay: Cell apoptosis assay (caspase-3/7); format: cell-based, human; conditions: 3 μM OF-1 + 3 μM BAY-876, 5 days, versus either alone
Description: Cells were seeded into 96-well plates at 3000 cells per well and left to adhere overnight. Then, cells were treated with DMSO or BAY-876 for 5 days, followed by addition of Incucyte TM Caspase- 3/7 reagents. Imaging of plates was carried out in an Incucyte Zoom instrument with a ×10 objective using the standard scan type. Data were analyzed using the integrated software provided with the instrument.
Wu et al., Supplementary figures and tables 5 indicate mean and error bars denote standard deviation from eight wells (from two independent assays). b) A representative immunoblot of histone acetylation level across ten TNBC lines. c) Plot of ECAR and histone acetylation across ten TNBC lines. […] Cell apoptotic activity was quantified by the fluorescent caspase 3/7 active objects. […]
Graph indicate mean and error bars denote standard deviation from four independent assay s. p value computed using a two - stage step -up Benjamini t test j) Immunoblot based quantification of H3K14ac abundance using total H3 as a control in MDA-MB-436 cells following control or 3 μM of the indicated chemical probes during a 5-day treatment. Graph indicate mean and error bars denote standard deviation from three independent assays. p value computed using a two-stage step-up Benjamini t test; **p<0.01; *** p<0.001. k) Immunoblot based quantification of H3K14ac abundance using total […]

TNBC cell lines = assay: OF-1 IC50 in glucose deprivation media; format: cell-based, human; conditions: 7 days
From the text: Graph indicates mean, error bars denote s.d. from eight wells (from two independent assays) and p-value was computed using the Benjamini-Hochberg t test; ***p < 0.001. d Immunoblot validation of BRPF knockdown in MDA-MB-436 cells. e Quantitative real-time PCR (RT-qPCR) validation of BRPF knockdown in MDA-MB-436 cells. […] Raw data images are available in Supplementary Fig. 4 […]
Wood & Pier Lorenzo Puri Scientific Reports volume 7, Article number: 6153 (2017)) as well as the role of the BET proteins in muscle differentiation (Roberts et al, Scientific reports 2017: BRD3 and BRD4 BET Bromodomain Proteins Differentially Regulate Skeletal Myogenesis). […]
Additional minor comment: The writing in the figure is often not readable (very low resolution) […]
with 0.1% DMSO (vol/vol). Cell viability at 7 days was evaluated using Incucyte ZOOM live cell imaging device (Essen Bioscence) and analyzed with Incucyte ZOOM (2016A) software based […]
In this study, Wu and colleagues report on characterization and possible applications of a set of 25 inhibitors for bromodomain. The authors evaluated selectivities of these inhibitors by measuring Kds for the interactions with a large number of bromodomains using ITC and BROMOscan. […]

**Q.** For `Cc1cc2c(cc1N1C(=O)c3cccc4c(CCCO)ccc(c34)C1=O)n(C)c(=O)n2C` [BAY-299], which Kd (TAF1L(2)) is on record?
**A.** The Kd was 234 nM.

**Q.** For `CCC(=O)N1CCOc2c(cc(-c3ccc(OC)c(OC)c3)cc2OCC2CCCN(C)C2)C1` (stereo not shown) [I-CBP112], which Kd (p300) is on record?
**A.** The Kd was 625 nM.

**Q.** For `COc1cc2c(cc1NS(=O)(=O)c1ccc(Br)cc1C)n(C)c(=O)n2C` [OF-1], which “apoptosis markers caspase-3/7” value (MDA-MB436 cells) is on record?
**A.** The value was “induced at a significantly higher level”.

**Q.** What about the OF-1 sensitivity (TNBC cell lines) of the same molecule?
**A.** The OF-1 sensitivity was “increase of OF-1 sensitivity”.
